For series [1], the system named is diamond back moth. Put plainly: Bioactivity test against diamond back moth (airbrush spray). Type of series: in vivo. To be noted: for control against diamond back moth (mortality): after 72 h. The protocol: (§1) Compounds were dissolved in mixed solvent (acetone:methanol=1:1), and diluted to required concentration with water containing 0.1% of tween 80.
(§2) Diamond back moth, armyworm, peach aphid and carmine spider mite were used as targets and the method of spraying by airbrush was used for determination of insecticidal bioassays.
The method of spraying by airbrush: The cabbage leaves were made into plates of 2 cm diameter by use of punch. A test solution (0.5 ml) was sprayed by airbrush at the pressure of 0.7 kg/cm^2 to both sides of every plate. 10 Second instar larvae were put into the petri-dishes after the leaf disc air-dried and 3 replicates were set for each treatment. Then the insects were maintained in observation room (25° C., 60˜70% R.H.). Scores were conducted and mortalities were calculated after 72 h.

In series [2] the test system is cucumber downy mildew. Put plainly: Protectant activity in vivo (whole plant), cucumber downy mildew. To be noted: protectant activity. The procedure: (§3) The method is as followed: The whole plant is used in this test. The compound is dissolved in a proper solvent to get mother solution. The proper solvent is selected from acetone, methanol, DMF and so on according to their dissolving capability to the sample. […] The testing solution is sprayed to the host plant by a special plant sprayer. The plant is inoculated with fungus after 24 hours. According to the infecting characteristic of fungus, the plant is stored in a humidity chamber and then transferred into greenhouse after infection is finished. And the other plants are placed in greenhouse directly.

Series [3] concerns wheat powdery mildew. Put plainly: Protectant activity in vivo (whole plant), wheat powdery mildew. To be noted: protectant activity. The protocol: as §3
Series [4] deals with Green peach aphids (Myzus Persicae Sulzer). Put plainly: Bioactivity test against green peach aphid (airbrush foliar spray). Type of series: in vivo. The protocol: as §1, §2
Method: Filter papers were put in culture dishes (Diameter=6 cm), and water was dripped on filter papers for preserving moisture. Green peach aphids (Myzus Persicae Sulzer) were maintained on cabbage. Leaves (Diameter=3 cm) of approximately 15-30 aphids were put in the culture dishes. Bioactivity tests were used the method of Airbrush Foliar Spray, pressure=10 psi (0.7 kg/cm2), spray volume=0.5 mL. The studies were conducted at […] 25±1 C in incubator cabinets with 60±5% RH. Survey the survival aphids after 48 h and calculate the death rates.

Series [5] has as its system carmine spider mite. As to the kind of experiment: Bioactivity test against carmine spider mite (airbrush spray). In kind it is in vivo. The settings on record: Tetranychus cinnabarinus, 72 h, after 72 hrs, read-out: control against carmine spider mite (mortality). The procedure: as §1, §2
The method: shoots with two true leaves in pot were taken, the healthy adults of carmine spider mite were inoculated to the leaves. The adults were counted and then sprayed with airbrush at the pressure of 0.7 kg/cm^2 and at dose of 0.5 ml. 3 replicates were set for each treatment. And then they were maintained in standard observation room. Scores were conducted and mortalities were calculated after 72 hrs.

Series [6] relates to cucumber anthracnose. Put plainly: Protectant activity in vivo (whole plant), cucumber anthracnose. To be noted: for control effect against cucumber anthracnose (%): protectant activity. The protocol:
as §3

For series [7], the system named is rice blast. Put plainly: microbe, parasite or virus in culture. In kind it is cell-based. To be noted: in vitro.

As for `CCc1ncnc(NCc2cnn(-c3ccccc3)c2C(F)(F)F)c1Cl` [CK2, reference compound], the “Insecticidal activity against diamond back moth (%)” value in series [1] (600 mg/L) is recorded as 20%. Further, the “control effect against cucumber downy mildew(%)” value in series [2] (25 mg/L) was 20%; in series [2] (50 mg/L), 75%; in series [2] (100 mg/L), 100%; in series [2] (400 mg/L), 100%. Besides, the “control effect against wheat powdery mildew (%)” value in series [3] (6.25 mg/L) came out at 0%; in series [3] (25 mg/L), 20%; in series [3] (100 mg/L) it was 50%; in series [3] (400 mg/L), 100%. Further, the “Insecticidal activity against peach aphid (%)” value in series [4] (10 mg/L) was 0%; in series [4] (100 mg/L), 55%; in series [4] (600 mg/L), 100%.
In the case of `CCc1ncnc(NCCc2cnn(C(C)(C)C)c2)c1Cl` [Compound 23], the “control effect against wheat powdery mildew (%)” value turned out to be 98% in series [3] (100 mg/L) and 100% in series [3] (400 mg/L). The “Insecticidal activity against peach aphid (%)” value in series [4] (100 mg/L) turned out to be 94%; in series [4] (600 mg/L), 100%. For the same compound, the mortality at 100 ppm in series [5] (100 ppm) is over 80%. Further, in series [5] (600 ppm), the mortality at 600 ppm is over 80%.
As for `CC(C)(C)n1cc(CCNc2ncnc(C(F)F)c2Cl)cn1` [Compound 38], the “control effect against wheat powdery mildew (%)” value in series [3] (6.25 mg/L) turned out to be 40%; in series [3] (25 mg/L), 100%; in series [3] (100 mg/L) it was 100%; in series [3] (400 mg/L) it was 100%. For the same compound, the “control effect against cucumber anthracnose (%)” value in series [6] (6.25 mg/L) is given as 85%; in series [6] (25 mg/L) it was 90%; in series [6] (100 mg/L), 95%; in series [6] (400 mg/L), 100%. The “Insecticidal activity against peach aphid (%)” value in series [4] (100 mg/L) and in series [4] (600 mg/L) was 100% each time.
`FC(F)c1ncnc(NCCc2cnn(-c3ccc(C(F)(F)F)cc3)c2)c1Cl` [Compound 865]: the results for the “Insecticidal activity against diamond back moth (%)” value in series [1] (10 mg/L), in series [1] (100 mg/L) and in series [1] (600 mg/L) were 42%, 50% and 100%, respectively. Besides, the “control against diamond back moth (mortality)” value (from here on “control … (mortality)”) in series [1] (600 ppm) is reported as 100%. The “control effect against wheat powdery mildew (%)” value in series [3] (6.25 mg/L) is 40%; in series [3] (25 mg/L) it was 80%; in series [3] (100 mg/L), 85%; in series [3] (400 mg/L), 100%.
Consider `FC(F)c1ncnc(NCCc2cnn(-c3ccccc3)c2)c1Cl` [Compound 797], for which the figures for the “Insecticidal activity against diamond back moth (%)” value in series [1] (10 mg/L), in series [1] (100 mg/L) and in series [1] (600 mg/L) were 65%, 85% and 100%, respectively. Moreover, the “control … (mortality)” value in series [1] (100 ppm) is 85%; in series [1] (600 ppm), 100%. In addition, the “control effect against wheat powdery mildew (%)” value came out at 60% in series [3] (6.25 mg/L), 100% in series [3] (25 mg/L), 100% in series [3] (100 mg/L) and 100% in series [3] (400 mg/L).
`Cc1ncnc(NCCc2cnn(-c3ccccc3)c2)c1Cl` [Compound 241]: the “Insecticidal activity against diamond back moth (%)” value in series [1] (10 mg/L) was 29%; in series [1] (100 mg/L), 71%; in series [1] (600 mg/L), 100%. The “control … (mortality)” value in series [1] (600 ppm) is 100%. Further, the “inhibition rate against rice blast” value in series [7] (0.1 ppm) is 80%; in series [7] (0.3 ppm), 80%; in series [7] (0.9 ppm), 100%. The “control effect against cucumber downy mildew(%)” value worked out at 65% in series [2] (12.5 mg/L); 100% in series [2] (25 mg/L); 100% in series [2] (50 mg/L); 100% in series [2] (100 mg/L); 100% in series [2] (400 mg/L).
For the compound `Cc1cc(N(C)Cc2cnn(-c3ccccc3)c2)nc(C(C)C)n1` [CK4, reference compound], the “Insecticidal activity against diamond back moth (%)” value in series [1] (600 mg/L) turned out to be 0%. The “control effect against cucumber downy mildew(%)” value in series [2] (25 mg/L) turned out to be 0%; in series [2] (50 mg/L), 40%; in series [2] (100 mg/L) it was 50%; in series [2] (400 mg/L), 100%. Moreover, in series [3] (400 mg/L), the “control effect against wheat powdery mildew (%)” value is 0%. For the same compound, the “control effect against cucumber anthracnose (%)” value in series [6] (400 mg/L) amounted to 0%. Also, the “Insecticidal activity against peach aphid (%)” value in series [4] (600 mg/L) worked out at 0%.
As to `Cc1nc(Cl)cc(N(C)Cc2c(C)nn(-c3ccccc3)c2C)n1` [CK5, reference compound], the “Insecticidal activity against diamond back moth (%)” value in series [1] (600 mg/L) is 0%. The “control effect against cucumber downy mildew(%)” value in series [2] (400 mg/L) was found to be 85%. In addition, in series [3] (400 mg/L), the “control effect against wheat powdery mildew (%)” value is given as 0%. In series [6] (400 mg/L), the “control effect against cucumber anthracnose (%)” value is on record as 0%. Also, the “Insecticidal activity against peach aphid (%)” value is recorded as 0% in series [4] (10 mg/L), 22% in series [4] (100 mg/L) and 100% in series [4] (600 mg/L).
For the compound `Cc1nc(C)c(C)c(N(C)Cc2cnn(-c3ccccc3)c2)n1` [CK3, reference compound], the “Insecticidal activity against diamond back moth (%)” value in series [1] (600 mg/L) stood at 0%. Further, the “control effect against cucumber downy mildew(%)” value in series [2] (25 mg/L) is 0%; in series [2] (50 mg/L) it was 30%; in series [2] (100 mg/L), 40%; in series [2] (400 mg/L), 100%. The “control effect against wheat powdery mildew (%)” value in series [3] (400 mg/L) is 0%. In addition, in series [6] (400 mg/L), the “control effect against cucumber anthracnose (%)” value was 0%. Moreover, the entries for the “Insecticidal activity against peach aphid (%)” value in series [4] (10 mg/L), in series [4] (100 mg/L) and in series [4] (600 mg/L) were 0%, 19% and 77%, respectively.
On to `CCc1ncnc(NCc2cnn(-c3ccccc3)c2C)c1Cl` [CK1, reference compound], for which the “Insecticidal activity against diamond back moth (%)” value in series [1] (600 mg/L) stood at 43%. Besides, the “control effect against cucumber downy mildew(%)” value in series [2] (25 mg/L) stood at 20%; in series [2] (50 mg/L), 95%; in series [2] (100 mg/L) it was 100%; in series [2] (400 mg/L), 100%. Further, the “control effect against wheat powdery mildew (%)” value is 0% in series [3] (6.25 mg/L), 40% in series [3] (25 mg/L), 60% in series [3] (100 mg/L) and 100% in series [3] (400 mg/L). Further, the “Insecticidal activity against peach aphid (%)” value in series [4] (10 mg/L) is recorded as 0%; in series [4] (100 mg/L), 0%; in series [4] (600 mg/L), 91%.
Take `Cc1ncnc(NCCc2cnn(-c3ccc(OC(F)(F)F)cc3)c2)c1Cl` [Compound 318]: the “control effect against cucumber downy mildew(%)” value in series [2] (25 mg/L) was determined as 90%; in series [2] (50 mg/L), 98%; in series [2] (100 mg/L), 100%; in series [2] (400 mg/L), 100%. Also, the “control effect against wheat powdery mildew (%)” value in series [3] (6.25 mg/L) turned out to be 90%; in series [3] (25 mg/L), 100%; in series [3] (100 mg/L) it was 100%; in series [3] (400 mg/L), 100%. Besides, the “control effect against cucumber anthracnose (%)” value in series [6] (0.78 mg/L) stood at 98%; in series [6] (1.56 mg/L), 98%; in series [6] (3.13 mg/L), 100%; in series [6] (6.25 mg/L), 100%; in series [6] (25 mg/L) it was 100%; in series [6] (100 mg/L) it was 100%. In addition, the “control effect against cucumber anthracnose (%)” value in series [6] (400 mg/L) turned out to be 100%. Further, the figures for the “protectant activity against cucumber anthracnose in vivo” value in series [6] (0.78 ppm), in series [6] (1.56 ppm) and in series [6] (3.13 ppm) were 98%, 98% and 100%, respectively.

The record behind these values is patent US9682962B2, “Pyrazolyl pyrimidinamine compound and application thereof” (SHENYANG SINOCHEM AGROCHEMICALS R&D CO., LTD., priority 2013, dated 2017).
